Measurements published in patent publication US20120214846A1, “HEXAHYDROCYCLOPENTYL[F]INDAZOLE PYRIDYL ETHANOLS AND DERIVATIVES THEREOF AS SELECTIVE GLUCOCORTICOID RECEPTOR MODULATORS” (MERCK SHARP & DOHME CORP, priority 2009, published 2012).
Converted amounts (≈) assume the structure as drawn. Where two headings read alike, the source gives them in different places.

Experiments:
GR [1] = biological target: T1, GR (Homo sapiens, UniProt P04150); experiment: Transrepression Assay (GITAR), TNFα-β-lactamase reporter, U937 cells; assay type: cell-based; set-up: U937 cells contain an endogenous glucocorticoid receptor (GR); endogenous in cells; host or cells: U937 cells stably transfected with the TNF-alpha promoter beta-lactamase reporter
T1 sequence (P04150 1-777): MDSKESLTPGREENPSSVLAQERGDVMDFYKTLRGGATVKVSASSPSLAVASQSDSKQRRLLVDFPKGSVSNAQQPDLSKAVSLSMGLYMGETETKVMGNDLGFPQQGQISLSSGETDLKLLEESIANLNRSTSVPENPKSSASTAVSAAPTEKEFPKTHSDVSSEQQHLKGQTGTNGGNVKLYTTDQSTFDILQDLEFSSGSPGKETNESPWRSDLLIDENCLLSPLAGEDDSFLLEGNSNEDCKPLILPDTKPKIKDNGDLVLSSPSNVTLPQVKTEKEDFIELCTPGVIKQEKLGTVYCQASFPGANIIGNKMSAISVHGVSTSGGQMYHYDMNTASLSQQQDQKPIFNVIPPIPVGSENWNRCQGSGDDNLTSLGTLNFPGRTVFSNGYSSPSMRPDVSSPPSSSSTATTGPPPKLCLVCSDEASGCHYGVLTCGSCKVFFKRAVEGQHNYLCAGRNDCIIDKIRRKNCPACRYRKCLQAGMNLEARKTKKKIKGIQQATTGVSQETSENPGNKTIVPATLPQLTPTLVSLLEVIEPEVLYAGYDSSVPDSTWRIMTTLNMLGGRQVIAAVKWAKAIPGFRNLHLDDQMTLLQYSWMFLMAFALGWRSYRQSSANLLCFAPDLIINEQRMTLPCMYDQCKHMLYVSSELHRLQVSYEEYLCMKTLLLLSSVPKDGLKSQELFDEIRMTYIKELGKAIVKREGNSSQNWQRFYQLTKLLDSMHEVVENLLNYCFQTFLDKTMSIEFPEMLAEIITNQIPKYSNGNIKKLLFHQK
Description: This assay assesses the ability of test compounds to control transcription from the TNFα-β-lactamase reporter gene in U937 cells, a human myelomonocytic leukemia cell line that naturally expresses the human GR. The assay measures compound dependent-repression of the TNFa promoter linked to a reporter gene.
The human U937 cells that had been stablely transfected with the TNF-α promoter driving […] are used for this assay. U937 cells contain an endogenous glucocorticoid receptor (GR). […] 50,000 cells/well are plated in 96 well black-walled plates the day of assay. Test compounds are added 10 μL/well, and cells are incubated at 37° C. for 30˜45 min. For assaying compounds, first dilute 1:10 in DMSO to make 1 mM, then further dilute 1:100 in medium to make 10× stock prior to adding to the cells. Add 50 ng/ml PMA (Sigma, cat#P8139) 10 μL/well to a final concentration 5 ng/ml, and 1 μg/ml LPS (Sigma, cat#L4130) 10 μL/well to a final concentration 100 ng/ml. Incubate cells at 37° C. overnight for ˜18 hr. PMA is stored frozen as 100 μg/ml stock in DMSO. Dilute 1:10 in DMSO for a working stock of […] and store at −20 C. For assaying, dilute the 10 μg/ml working stock 1:200 in medium to make a 10× solution (50 ng/ml). Store frozen LPS at 1 mg/ml in PBS, dilute 1:1000 in medium to make 10× (1 μg/ml) for the assay. Add 6× loading buffer (CCF2-AM) 20 μL/well, and incubate at room temperature for 70˜90 min. […] The activity repressed by 100 nM dexamethasone alone is set as 100% activity.

GR [2] = biological target: T1, GR; experiment: Trans-Activation Modulation of Glucocorticoid Receptor Assay (GRAMMER), MMTV-LUC reporter, A549 cells; assay type: cell-based; set-up: endogenous in cells
Description: Trans-Activation Modulation of Glucocorticoid Receptor Assay
This assay assesses the ability of test compounds to control transcription from the MMTV-LUC reporter gene in lung adenocarcinoma A549 cells or HeLa cells, a human […] cell line that naturally expresses the human GR. The assay measures induction of a modified MMTV LTR/promoter linked to the LUC reporter gene.
The routine transient assay consists of plating 7,000-25,000 cells/well of a white, clear-bottom 96-well plate. Alternatively, 384-well plates can be used at a cell concentration of 10,000/well. The media that the cells are plated in is “exponential growth medium” which consists of phenol red-free RPMI1640 containing 10% FBS, 4 mM L-glutamine, 20 mM HEPES, 10 ug/mL human insulin, and 20 ug/mL gentamicin. Incubator conditions are 37° C. and 5% CO2. The transfection is done in batch mode. The cells are trypsinized and counted to the right cell number in the proper amount of fresh media. It is then gently mixed with the FuGene6/DNA mix and plated onto the 96 or 384-well plate, all the wells receive 100 uL or 40 uL, respectively, of medium+lipid/DNA complex then incubated 37° C. overnight. The transfection cocktail consists of serum-free OptiMEM, FuGene6 reagent and DNA. The manufacturer's (Roche Biochemical) protocol for cocktail setup is as follows: The lipid to DNA ratio is approximately 2.5:1 and the incubation time is 20 min at room temperature. Sixteen to 24 hours after transfection, the cells are treated with dexamethasone to a final concentration of 10 nM as well as the compound of interest, such that final DMSO (vehicle) concentration is equal to or less than 1%. Each plate also contains samples that are treated with 10 nM dexamethasone alone, which is used as the 100% activity control. The cells are exposed to the compounds for 24 hours. After 24 hours, the cells are lysed by a Promega cell culture lysis buffer for approximately 30 min and then the luciferase activity in the extracts is assayed in the 96-well format luminometer. In 384-well format, Steady-Glo (Promega) or Steady-Lite (PerkinElmer) can be used by adding an equal volume of reagent to the media present in each well. […] Antagonist activity is calculated by determining the decrease in dexamethasone-induced activity in response to compound treatment relative to samples that were treated with dexamethasone alone. […] This transactivation assay can be performed in an agonist and antagonist mode to identify these different activities.
The action of compounds is also tested in an antagonist mode (Anti-GRAMMER) in which the cells are treated with medium containing an agonist such as 10 nM DEX and the ability to agents to inhibit the activation by an agonist is measured.

Solubility at pH 2 = assay type: physicochemical
[3] = Table 4, literature compounds, read-out: GITAR IP
[4] = U-937, Table 4, literature compounds, read-out: GITAR EMAX
[5] = A549, Table 4, literature compounds, read-out: GRAMMER EMAX
[6] = Table 4, literature compounds, read-out: GRAMMER IP
[7] = U937 cells, inflection point, read-out: Transrepression U937 Cells GITAR IP
[8] = U-937, U937 cells, activity repressed by 100 nM dexamethasone set as 100%, read-out: Transrepression U937 Cells GITAR Emax
[9] = A549, A549 cells, relative to 300 nM dexamethasone, read-out: Transactivation A549 Cells GRAMMER Emax
[10] = A549 cells, inflection point, read-out: Transactivation A549 Cells GRAMMER IP
[11] = pH 2, aqueous buffer, pH 2, read-out: Solubility At pH 2

| SMILES | EC50 (GR [1]; [3]) | Emax (GR [1]; [4]) | Emax (GR [2]; [5]) | EC50 (GR [2]; [6]) | solubility (Solubility at pH 2; Table 4, literature compounds) | Emax (GR [2]; A549, read-out: GRAMMER EMAX) | EC50 (GR [2]; GRAMMER IP, Table 4, literature compounds) | EC50 (GR [1]; [7]) | Emax (GR [1]; [8]) | Emax (GR [2]; [9]) | EC50 (GR [2]; [10]) | solubility (Solubility at pH 2; [11]) |
| --- | --- | --- | --- | --- | --- | --- | --- | --- | --- | --- | --- | --- |
| C[C@]12Cc3cnn(-c4ccc(F)cc4)c3C=C1CCC[C@@H]2[C@@H](O)Cc1ccccc1 [Ex. 22 WO 03/086294 A2, reference compound] | 242 nM | 76.8% | 61% | 122 nM | poor | – | – | – | – | – | – | – |
| C[C@]12Cc3cnn(-c4ccc(F)cc4)c3C=C1CCC[C@@H]2[C@@H](O)CCc1ccccc1 [Ex. 30 WO 03/086294 A2, reference compound] | 165 nM | 82.9% | – | – | poor | 48.8% | 166 nM | – | – | – | – | – |
| C[C@]12Cc3cnn(-c4ccc(F)cc4)c3C=C1CCC[C@@H]2[C@@H](O)c1ccccc1 [Ex. 35 WO 03/86294 A2, reference compound] | 200 nM | 78.8% | 40.2% | 195 nM | poor | – | – | – | – | – | – | – |
| CO[C@@]1(CCc2ccccc2Cl)CCC2=Cc3c(cnn3-c3ccc(F)cc3)C[C@@]21C [Ex. 103 WO 04/075840 A2, reference compound] | 191 nM | 93.3% | 115% | 162 nM | poor | – | – | – | – | – | – | – |
| COc1ccnc(C(O)C[C@]2(O)CCC3=Cc4c(cnn4-c4ccc(F)cc4)C[C@@]32C)c1 (stereo partly drawn) [Example 3, (4αS,5R)-1-(4-fluorophenyl)-5-[2-hydroxy-2-(4-methoxypyridin-2-yl)ethyl]-4α-methyl-1,4,4α,5,6,7-hexahydrocyclopenta[f]indazol-5-ol] | – | – | – | – | – | – | – | 111 nM | 81.3% | 21.6% | 132 nM | 174 µM (≈ 75.8 µg/mL) |
| C[C@]12Cc3cnn(-c4ccc(F)cc4)c3C=C1CC[C@@]2(O)CC(O)c1ncccc1F (stereo partly drawn) [Example 4, (4αS,5R)-1-(4-fluorophenyl)-5-[2-(3-fluoropyridin-2-yl)-2-hydroxyethyl]-4α-methyl-1,4,4α,5,6,7-hexahydrocyclopenta[f]indazol-5-ol] | – | – | – | – | – | – | – | 360 nM | 70.6% | 17.5% | 698 nM | < 1 µM |
| C[C@]12Cc3cnn(-c4ccc(F)cc4)c3C=C1CC[C@@]2(O)CC(O)c1ccc(C(F)(F)F)cn1 (stereo partly drawn) [Example 6, (4αS,5R)-1-(4-fluorophenyl)-5-{2-hydroxy-2-[5-(trifluoromethyl)pyridin-2-yl]ethyl}-4α-methyl-1,4,4α,5,6,7-hexahydrocyclopenta[f]indazol-5-ol] | – | – | – | – | – | – | – | 344 nM | 76.2% | 18.6% | 328 nM | 4 µM (≈ 1.89 µg/mL) |
| C[C@]12Cc3cnn(-c4ccc(F)cc4)c3C=C1CC[C@@]2(O)CC(O)c1cc(C#N)ccn1 (stereo partly drawn) [Example 9, 2-{2-[(4αS,5R)-1-(4-fluorophenyl)-5-hydroxy-4α-methyl-1,4,4α,5,6,7-hexahydrocyclopenta[f]indazol-5-yl]-1-hydroxyethyl}pyridine-4-carbonitrile] | – | – | – | – | – | – | – | 48 nM | 74.9% | 27.4% | 160 nM | 104 µM (≈ 44.8 µg/mL) |
| Cc1ccnc(C(O)C[C@]2(O)CCC3=Cc4c(cnn4-c4ccc(F)cc4)C[C@@]32C)c1 (stereo partly drawn) [Example 11, (4αS,5R)-1-(4-fluorophenyl)-5-[2-hydroxy-2-(4-methylpyridin-2-yl)ethyl]-4α-methyl-1,4,4α,5,6,7-hexahydrocyclopenta[f]indazol-5-ol] | – | – | – | – | – | – | – | 47.8 nM | 69.1% | 27.7% | 162 nM | 193 µM (≈ 81 µg/mL) |
